Measured values as given in patent US20140364493A1, “METHOD OF INHIBITING REMNANT LIPOPROTEIN PRODUCTION” (Japan Tobacco Inc., priority 2003, published 2014).

Legend:
[1] = system: remnant lipoprotein production in plasma of healthy subject; assay: In vitro effect on remnant lipoprotein production in plasma (RLP-cholesterol JIMRO II); type: biochemical, human; settings: 37° C.
Procedure: Compound A, Compound B, Compound C and Compound D were previously dissolved in dimethyl sulfoxide (DMSO). Plasma (200 μL) of healthy subject, and a solution (2 μL) of each compound in DMSO or DMSO (2 μL) were added into a microtube. On the other hand, a monoclonal antibody against human CETP was diluted with physiological saline and added into a microtube together with plasma (190 μL) of healthy subject and a diluted solution (10 μL) of the monoclonal antibody or physiological saline (10 μL). […] After ice-cooling, the cholesterol amount in the remnant fraction was measured using “RLP-cholesterol “JIMRO II”” (manufactured by Japan Immunoresearch Laboratories Co., Ltd.). The difference in the measured values from incubation of solvent alone at 4° C. and 37° C., namely, an increase in the remnant cholesterol was taken as a 100% production amount of remnant lipoprotein, and the percent of decrease in the measured values of incubation at 37° C. with the addition of each compound or the antibody was taken as percent inhibition of remnant lipoprotein production.

[2] = system: cholesteryl ester transfer from donor lipoprotein to remnant lipoprotein; assay: Cholesteryl ester transfer from donor lipoprotein ([3H]CE-HDL3) to remnant lipoprotein fraction in plasma; type: biochemical, human; settings: [3H]CE-HDL3-containing plasma, 37° C.
Procedure: (§1) Potassium bromide (KBr) was added to plasma (40 mL) of healthy subject and the mixture was adjusted to have a specific density d=1.125 g/mL. The mixture was subjected to density gradient centrifugation (227,000×g, 4° C., 17 hr) and a fraction showing a specific density of d>1.125 g/mL (HDL3 fraction) was harvested. The obtained fraction was dialyzed against PBS solution [10 mmol/L Na2HPO4; 10 mmol/L NaH2PO4; 0.15 mol/L NaCl; 1 mmol/L EDTA (pH 7.4)]. Then, tritium-labeled cholesterol (37 MBq) was dissolved in 95% ethanol, gradually added to the above-mentioned HDL3 fraction with stirring and incubated at 37° C. for 18 hr. [By this operation, tritium-labeled cholesterol was esterified by the action of lecithin cholesterol acyl transferase (LCAT) present on the HDL3 surface and taken up into HDL3 as tritium-labeled cholesteryl ester ([^3H]CE)]. After incubation, KBr was added, the mixture was adjusted to have a specific density d=1.21 g/mL, subjected to density gradient centrifugation (227,000×g, 4° C., 17 hr) and a fraction of specific density […] was harvested. The obtained fraction was dialyzed against the aforementioned PBS solution to give HDL3 incorporating [^3H]CE ([^3H]CE-HDL3, specific density: 1.125<d<1.21, specific activity: 22,000-33,000 dpm/μL), which was used as a donor lipoprotein.
The donor lipoprotein obtained above was added to the plasma of healthy subject to prepare a [^3H]CE-HDL3-containing plasma (2,000-4,000 dpm/μL). Compound A, Compound B, Compound C and Compound D were dissolved in dimethyl sulfoxide (DMSO). A solution of each compound in DMSO (1 μL) or DMSO (1 μL), and the [^3H]CE-HDL3-containing plasma (100 μL) were added into a microtube. On the other hand, the monoclonal antibody was diluted with physiological saline and added into a microtube together with a diluted solution (5 μL) of the monoclonal antibody or physiological saline (5 μL), and [^3H]CE-HDL3 containing plasma (95 μL). […] After ice-cooling, a remnant fraction was harvested using “RLP-cholesterol “JIMRO II”” (manufactured by Japan Immunoresearch Laboratories Co., Ltd.), and the radioactivity in the fraction was measured with a liquid scintillation counter. The difference in the measured values from incubation of solvent alone at 4° C. and 37° C. was taken as a 100% cholesteryl ester transfer activity, and the percent of decrease in the measured values of incubation at 37° C. with the addition of each compound or the antibody was taken as percent inhibition of cholesteryl ester transfer.

[3] = biological target: T1, CETP (Homo sapiens, UniProt P11597); assay: CETP activity in [3H]CE-HDL3-containing plasma (radioactivity in HDL fraction); type: biochemical; settings: 37° C.
T1 construct: added to the plasma of healthy subject to prepare a [^3H]CE-HDL3-containing plasma; from tissue; host or cells: plasma of healthy subject
T1 sequence (P11597 18-493): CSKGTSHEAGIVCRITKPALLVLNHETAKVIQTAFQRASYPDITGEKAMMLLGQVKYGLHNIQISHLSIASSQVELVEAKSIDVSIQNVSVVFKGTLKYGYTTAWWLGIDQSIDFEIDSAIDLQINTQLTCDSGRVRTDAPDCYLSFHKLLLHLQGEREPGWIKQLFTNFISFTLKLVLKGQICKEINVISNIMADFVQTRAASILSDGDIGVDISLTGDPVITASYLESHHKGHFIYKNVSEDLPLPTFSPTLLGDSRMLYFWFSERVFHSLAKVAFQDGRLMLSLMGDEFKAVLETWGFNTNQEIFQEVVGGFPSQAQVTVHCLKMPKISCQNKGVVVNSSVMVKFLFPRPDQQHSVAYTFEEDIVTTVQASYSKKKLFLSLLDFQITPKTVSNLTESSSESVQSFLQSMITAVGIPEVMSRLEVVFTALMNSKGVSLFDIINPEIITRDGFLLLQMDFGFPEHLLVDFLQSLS
Procedure: as §1
The donor lipoprotein obtained above was added to the plasma of healthy subject to prepare a [^3H]CE-HDL3-containing plasma (2,000-4,000 dpm/μL). […] A solution of each compound in DMSO (1 μL) or DMSO (1 μL), and the [^3H]CE-HDL3-containing plasma (100 μL) were added into a microtube. On the other hand, the monoclonal antibody was diluted with physiological saline and added into a microtube together with a diluted solution (5 μL) of the monoclonal antibody or physiological saline (5 μL), and [^3H]CE-HDL3 containing plasma (95 μL). […] After ice-cooling, a remnant fraction was harvested using “RLP-cholesterol “JIMRO II”” (manufactured by Japan Immunoresearch Laboratories Co., Ltd.), and the radioactivity in the fraction was measured with a liquid scintillation counter. The difference in the measured values from incubation of solvent alone at 4° C. and 37° C. was taken as a 100% cholesteryl ester transfer activity, and the percent of decrease in the measured values of incubation at 37° C. with the addition of each compound or the antibody was taken as percent inhibition of cholesteryl ester transfer.
The CETP activity was measured according to the method shown below using a part of the same plasma after incubation. After ice-cooling, plasma (80 μL) was separated and a TBS solution [80 μL, 20 mmol/L Tris; 0.15 mol/L NaCl (pH 7.4)] containing 50 mmol/L magnesium chloride and 0.1% dextran sulfate was added to each microtube and thoroughly stirred. After standing at 4° C. for 30 min, the mixture was centrifuged (10,000×g, 4° C., 10 min.), and the radioactivity in the obtained supernatant (HDL fraction) was measured with a scintillation counter. The difference in the measured values from incubation of solvent alone at 4° C. and 37° C. was taken as a 100% CETP activity, and the percent of decrease in the measured values of incubation at 37° C. with the addition of each compound or the antibody was taken as percent inhibition of CETP activity. The above results are shown in the following.

SMILES | Inhibition (%) of remnant lipoprotein production ([1]; 0.01 μM, 4 hr) [%] | Inhibition (%) of remnant lipoprotein production ([1]; 0.03 μM, 4 hr) [%] | Inhibition (%) of remnant lipoprotein production ([1]; 0.1 μM, 4 hr) [%] | Inhibition (%) of remnant lipoprotein production ([1]; 0.3 μM, 4 hr) [%] | Inhibition (%) of remnant lipoprotein production ([1]; 1 μM, 4 hr) [%] | Inhibition (%) of cholesteryl ester transfer to remnant fraction ([2]; 0.01 μM, 4 hr) [%] | Inhibition (%) of cholesteryl ester transfer to remnant fraction ([2]; 0.03 μM, 4 hr) [%] | Inhibition (%) of cholesteryl ester transfer to remnant fraction ([2]; 0.1 μM, 4 hr) [%] | Inhibition (%) of cholesteryl ester transfer to remnant fraction ([2]; 0.3 μM, 4 hr) [%] | Inhibition (%) of cholesteryl ester transfer to remnant fraction ([2]; 1 μM, 4 hr) [%] | other results
CCC(CC)CC1(C(=O)Nc2ccccc2SC(=O)C(C)C)CCCCC1 [Compound A, S-{2-([[1-(2-ethylbutyl)cyclohexyl]carbonyl]amino)phenyl}2-methylpropanethioate] |  |  |  |  |  |  |  |  |  |  | Inhibition (%) of remnant lipoprotein production ([1]; 3 μM, 6 hr): 25%; Inhibition (%) of remnant lipoprotein production ([1]; 10 μM, 6 hr): 54%; Inhibition (%) of remnant lipoprotein production ([1]; 30 μM, 6 hr): 77%; Inhibition (%) of cholesteryl ester transfer to remnant fraction ([2]; 3 μM, 6 hr): 21%; Inhibition (%) of cholesteryl ester transfer to remnant fraction ([2]; 10 μM, 6 hr): 29%; Inhibition (%) of cholesteryl ester transfer to remnant fraction ([2]; 30 μM, 6 hr): 92%; Inhibition (%) of CETP activity ([3]; 3 μM, 6 hr): 3%; Inhibition (%) of CETP activity ([3]; 10 μM, 6 hr): 34%; Inhibition (%) of CETP activity ([3]; 30 μM, 6 hr): 75%
CCOC(=O)N1c2ccc(C(F)(F)F)cc2[C@@H](N(Cc2cc(C(F)(F)F)cc(C(F)(F)F)c2)C(=O)OC)C[C@H]1CC [Compound D, ethyl (2R,4S)-4-[[3,5-bis(trifluoromethyl)benzyl](methoxycarbonyl)amino]-2-ethyl-6-(trifluoromethyl)-3,4-dihydroquinoline-1(2H)-carboxylic acid ester] | 38 | 32 | 44 | 59 | 62 | 12 | 28 | 54 | 78 | 94 | 
CCN(CC1CCCC1)c1cc2c(cc1CN(Cc1cc(C#N)cc(C(F)(F)F)c1)C(=O)OC)CCC2 [Compound C, methyl (3-cyano-5-trifluoromethylbenzyl)-[6-(N-cyclopentylmethyl-N-ethylamino)indan-5-ylmethyl]-carbamate] |  |  | 21 | 34 | 41 |  |  | −25 | 9 | 35 | Inhibition (%) of remnant lipoprotein production ([1]; 3 μM, 4 hr): 93%; Inhibition (%) of cholesteryl ester transfer to remnant fraction ([2]; 3 μM, 4 hr): 92%; inhibition at 0.1 µM ([3]; 0.1 μM, 4 hr): 6%; inhibition at 0.3 µM ([3]; 0.3 μM, 4 hr): 12%; inhibition at 1 µM ([3]; 1 μM, 4 hr): 31%; inhibition at 3 µM ([3]; 3 μM, 4 hr): 57%
CCN(C[C@H]1CC[C@H](CC(=O)O)CC1)c1cc(C)c(C(F)(F)F)cc1CN(Cc1cc(C(F)(F)F)cc(C(F)(F)F)c1)c1nnn(C)n1.CS(=O)(=O)O [Compound B, trans-(4-{[N-(2-{[N′-[3,5-bis(trifluoromethyl)benzyl]-N′-(2-methyl-2H-tetrazol-5-yl)amino]methyl}-5-methyl-4-trifluoromethylphenyl)-N-ethylamino]methyl}cyclohexyl)acetic acid methanesulfonate] | 29 | 36 | 42 | 52 | 84 | 15 | 26 | 55 | 89 | 100 | Inhibition (%) of CETP activity ([3]; 0.01 μM, 4 hr): 10%; Inhibition (%) of CETP activity ([3]; 0.03 μM, 4 hr): 25%; Inhibition (%) of CETP activity ([3]; 0.1 μM, 4 hr): 53%; Inhibition (%) of CETP activity ([3]; 0.3 μM, 4 hr): 74%; Inhibition (%) of CETP activity ([3]; 1 μM, 4 hr): 86%
